Patent US8735414B2 (priority 2009, dated 2014)

Legend:
[1] = tested on: bicistronic HCV replicon (replicon RNA, GenBank Accession No. AJ242654); assay: HCV Replicon Assay; type: cell-based; settings: Hepatitis C virus, 72 h, read-out: Replicon IC50

Row | Structure (SMILES) | IC50 [1] [nM] | melting point [°C]
1 | CC(C)NS(=O)(=O)c1ccc(-c2c(C#N)c3cc(F)ccc3n2CC2CC2)nc1 [compound 6, 6-[3-cyano-1-(cyclopropylmethyl)-5-fluoro-1H-indol-2-yl]-N-(propan-2-yl)pyridine-3-sulfonamide] | < 500 | 160 to 162
2 | CC(C)(C)S(=O)(=O)Nc1ccc(-c2c(C(N)=O)c3cc(F)c(OC(F)F)cc3n2C2CCCCC2)cn1 [compound 1063, 2-{6-[(tert-butylsulfonyl)amino]pyridin-3-yl}-1-cyclohexyl-6-(difluoromethoxy)-5-fluoro-1H-indole-3-carboxamide] | < 500 | 296 to 297
3 | C[C@H](NS(=O)(=O)c1ccc(-c2c(C#N)c3ccc(F)cc3n2CC2CC2)nc1)C(F)(F)F [compound 397, 6-[3-cyano-1-(cyclopropylmethyl)-6-fluoro-1H-indol-2-yl]-N-[(2S)-1,1,1-trifluoropropan-2-yl]pyridine-3-sulfonamide] | < 500 | 174 to 175
4 | Cc1ccc2c(c1)c(C#N)c(-c1ccc(S(=O)(=O)NC(CF)CF)cn1)n2CC1CC1 [compound 373, 6-[3-cyano-1-(cyclopropylmethyl)-5-methyl-1H-indol-2-yl]-N-(1,3-difluoropropan-2-yl)pyridine-3-sulfonamide] | < 500 | 186 to 188
5 | Cc1cc2c(cc1F)c(C#N)c(-c1ncc(S(=O)(=O)N[C@@H](C)C(F)(F)F)cc1C)n2-c1ccccn1 [compound 889, 6-[3-cyano-5-fluoro-6-methyl-1-(pyridin-2-yl)-1H-indol-2-yl]-5-methyl-N-[(2S)-1,1,1-trifluoropropan-2-yl]pyridine-3-sulfonamide] | < 500 | 197 to 202
6 | C[C@H](NS(=O)(=O)c1ccc(-c2c(C#N)c3cc(Cl)ccc3n2-c2ccccn2)nc1)C(F)(F)F [compound 442, 6-[5-chloro-3-cyano-1-(pyridin-2-yl)-1H-indol-2-yl]-N-[(2S)-1,1,1-trifluoropropan-2-yl]pyridine-3-sulfonamide] | < 500 | 186 to 188
7 | Cc1c(F)cc2c(c1F)c(C#N)c(-c1ccc(S(=O)(=O)N[C@@H](C)C(F)(F)F)cn1)n2C1CCCC1 [compound 559, 6-(3-cyano-1-cyclopentyl-4,6-difluoro-5-methyl-1H-indol-2-yl)-N-[(2S)-1,1,1-trifluoropropan-2-yl]pyridine-3-sulfonamide] | < 500 | 218 to 224
8 | C[C@H](NS(=O)(=O)c1ccc(-c2c(C(N)=O)c3c(F)cc(OC(F)F)cc3n2C2CCC2)nc1)C(F)(F)F [compound 825, 1-cyclobutyl-6-(difluoromethoxy)-4-fluoro-2-(5-{[(2S)-1,1,1-trifluoropropan-2-yl]sulfamoyl}pyridin-2-yl)-1H-indole-3-carboxamide] | < 500 | 254 to 256
9 | Cc1cc2c(cc1F)c(C#N)c(-c1ccc(S(=O)(=O)N[C@@H](C)C(F)(F)F)cn1)n2-c1ncccc1Cl [compound 971, 6-[1-(3-chloropyridin-2-yl)-3-cyano-5-fluoro-6-methyl-1H-indol-2-yl]-N-[(2S)-1,1,1-trifluoropropan-2-yl]pyridine-3-sulfonamide] | 500 to 2000 | 221 to 225
10 | Cc1cc2c(cc1F)c(C#N)c(-c1ccc(S(=O)(=O)N[C@@H](C)C(F)(F)F)cn1)n2-c1ccsc1 [compound 992, 6-[3-cyano-5-fluoro-6-methyl-1-(thiophen-3-yl)-1H-indol-2-yl]-N-[(2S)-1,1,1-trifluoropropan-2-yl]pyridine-3-sulfonamide] | < 500 | 196 to 203
11 | Cc1ccc2c(C#N)c(-c3ccc(S(=O)(=O)NC(CF)CF)cn3)n(C3CCCC3)c2c1F [compound 423, 6-(3-cyano-1-cyclopentyl-7-fluoro-6-methyl-1H-indol-2-yl)-N-(1,3-difluoropropan-2-yl)pyridine-3-sulfonamide] | < 500 | 211 to 216
12 | Cc1ccc2c(c1)c(C#N)c(-c1ccc(S(=O)(=O)NC(C)(C)C(F)(F)F)cn1)n2C1CCC1 [compound 480, 6-(3-cyano-1-cyclobutyl-5-methyl-1H-indol-2-yl)-N-(1,1,1-trifluoro-2-methylpropan-2-yl)pyridine-3-sulfonamide] | < 500 | 182 to 187
13 | N#Cc1c(-c2ncc(S(=O)(=O)NC(CF)CF)cn2)n(CC2CC2)c2cc(F)ccc12 [compound 164, 2-[3-cyano-1-(cyclopropylmethyl)-6-fluoro-1H-indol-2-yl]-N-(1,3-difluoropropan-2-yl)pyrimidine-5-sulfonamide] | 500 to 2000 | 176 to 178
14 | Cc1cc2c(cc1F)c(C(N)=O)c(-c1ccc(S(=O)(=O)NC(C)(C)C(F)(F)F)cn1)n2C1CCCCC1 [compound 714, 1-cyclohexyl-5-fluoro-6-methyl-2-{5-[(1,1,1-trifluoro-2-methylpropan-2-yl)sulfamoyl]pyridin-2-yl}-1H-indole-3-carboxamide] | < 500 | 245 to 250
15 | C[C@H](NS(=O)(=O)c1cnc(-c2c(C#N)c3ccc(CC(F)F)cc3n2C2CCC2)nc1)C1CC1 [compound 592, 2-[3-cyano-1-cyclobutyl-6-(2,2-difluoroethyl)-1H-indol-2-yl]-N-[(1S)-1-cyclopropylethyl]pyrimidine-5-sulfonamide] | < 500 | 168 to 175
16 | Cc1cc2c(cc1F)c(C#N)c(-c1ccc(S(=O)(=O)N[C@@H](C)C(F)(F)F)cn1)n2-c1occc1C#N [compound 1072, 6-[3-cyano-1-(3-cyanofuran-2-yl)-5-fluoro-6-methyl-1H-indol-2-yl]-N-[(2S)-1,1,1-trifluoropropan-2-yl]pyridine-3-sulfonamide] | 500 to 2000 | 238 to 243.6
17 | N#Cc1c(-c2ncc(S(=O)(=O)NC(CF)CF)cn2)n(C2CCCCC2)c2cc(Cl)ccc12 [compound 517, 2-(6-chloro-3-cyano-1-cyclohexyl-1H-indol-2-yl)-N-(1,3-difluoropropan-2-yl)pyrimidine-5-sulfonamide] | < 500 | 228 to 234
18 | C[C@H](C1CC1)n1c(-c2ccc(NS(=O)(=O)C(C)(C)C)nc2)c(C(N)=O)c2cc(F)c(OC(F)F)cc21 [compound 1085, 2-{6-[(tert-butylsulfonyl)amino]pyridin-3-yl}-1-[(1R)-1-cyclopropylethyl]-6-(difluoromethoxy)-5-fluoro-1H-indole-3-carboxamide] | < 500 | 228 to 230
19 | C[C@H](NS(=O)(=O)c1ccc(-c2c(C#N)c3ccc(OC(F)F)cc3n2-c2ccccn2)nc1)C(F)(F)F [compound 387, 6-[3-cyano-6-(difluoromethoxy)-1-(pyridin-2-yl)-1H-indol-2-yl]-N-[(2S)-1,1,1-trifluoropropan-2-yl]pyridine-3-sulfonamide] | < 500 | 199 to 203
20 | C[C@H](NS(=O)(=O)c1ccc(-c2c(C#N)c3cc(F)c(OC(F)F)cc3n2CCO)nc1)C(F)(F)F [compound 940, 6-[3-cyano-6-(difluoromethoxy)-5-fluoro-1-(2-hydroxyethyl)-1H-indol-2-yl]-N-[(2S)-1,1,1-trifluoropropan-2-yl]pyridine-3-sulfonamide] | 500 to 2000 | 203 to 208
21 | CC(C)(C)S(=O)(=O)Nc1ccc(-c2c(C#N)c3c(F)cc(C4CC4)cc3n2C2CCCCC2)nc1 [compound 1092, N-[6-(3-cyano-1-cyclohexyl-6-cyclopropyl-4-fluoro-1H-indol-2-yl)pyridin-3-yl]-2-methylpropane-2-sulfonamide] | < 500 | 252 to 255
22 | Cc1cc2c(C#N)c(-c3ncc(S(=O)(=O)NC(C)C)cn3)n(C3CCCC3)c2cc1Cl [compound 523, 2-(6-chloro-3-cyano-1-cyclopentyl-5-methyl-1H-indol-2-yl)-N-(propan-2-yl)pyrimidine-5-sulfonamide] | 500 to 2000 | 216 to 216.5
23 | COc1cc2c(cc1F)c(C#N)c(-c1ccc(S(=O)(=O)NC(CF)CF)cn1)n2CC1CC1 [compound 225, 6-[3-cyano-1-(cyclopropylmethyl)-5-fluoro-6-methoxy-1H-indol-2-yl]-N-(1,3-difluoropropan-2-yl)pyridine-3-sulfonamide] | < 500 | 196 to 199
24 | CC(C)(NS(=O)(=O)c1ccc(-c2c(C#N)c3ccc(OC(F)F)cc3n2-c2ccccc2)nc1)C(F)(F)F [compound 612, 6-[3-cyano-6-(difluoromethoxy)-1-phenyl-1H-indol-2-yl]-N-(1,1,1-trifluoro-2-methylpropan-2-yl)pyridine-3-sulfonamide] | < 500 | 218 to 220
25 | N#Cc1c(-c2ccc(S(=O)(=O)NC(CF)CF)cn2)n(C2CCC2)c2cc(OC(F)(F)F)ccc12 [compound 24, 6-[3-cyano-1-cyclobutyl-6-(trifluoromethoxy)-1H-indol-2-yl]-N-(1,3-difluoropropan-2-yl)pyridine-3-sulfonamide] | < 500 | 158 to 160
26 | C[C@@H](NS(=O)(=O)c1ccc(-c2c(C#N)c3ccc(C(F)F)cc3n2C2CCC2)nc1)C(F)(F)F [compound 334, 6-[3-cyano-1-cyclobutyl-6-(difluoromethyl)-1H-indol-2-yl]-N-[(2R)-1,1,1-trifluoropropan-2-yl]pyridine-3-sulfonamide] | < 500 | 200 to 206
27 | CCc1cc2c(cc1F)c(C#N)c(-c1ccc(S(=O)(=O)N[C@@H](C)C(F)(F)F)cn1)n2-c1cncnc1 [compound 963, 6-[3-cyano-6-ethyl-5-fluoro-1-(pyrimidin-5-yl)-1H-indol-2-yl]-N-[(2S)-1,1,1-trifluoropropan-2-yl]pyridine-3-sulfonamide] | < 500 | 250 to 257
28 | N#Cc1c(-c2ccc(NS(=O)(=O)C3CC3)cn2)n(C2CCCCC2)c2ccc(Cl)cc12 [compound 298, N-[6-(5-chloro-3-cyano-1-cyclohexyl-1H-indol-2-yl)pyridin-3-yl]cyclopropanesulfonamide] | 500 to 2000 | 230 to 235
